Laboratory results reported in US5527882A, “Polypeptide having an amino acid replaced with N-benzylglycine” (The Regents of the University of California, priority 1994, dated 1996).
Square brackets hold non-standard residues; d marks the D form. Ends that are not written are not given here. Peptide text beside a SMILES is read from it.

Tests used:
[1] = system: pulmonary circulation; details: rat, in vivo
Description: (§1) See Vavrek supra for assay methods.
Bradykinin and (NBzlGly^7)-bradykinin were virtually identical with respect to destruction (98-99%) on passage through the pulmonary circulation.

[2] = system: rat uterus; assay: Smooth muscle bioassay: rat uterus contraction; format: cell-based; details: bradykinin = 100%
Description: as §1
Rat Uterus, rat uterus contraction;

[3] = system: guinea pig ileum; assay: Smooth muscle bioassay: guinea pig ileum contraction; format: cell-based; details: bradykinin = 100%
Description: as §1
GP Ileum, guinea pig ileum contraction;

[4] = system: rat blood pressure; assay: Rat blood pressure assay; format: in vivo; details: bradykinin = 100%
Description: | See Vavrek supra for assay methods.

| Compound | Destruction [1] | Smooth Muscle Rat Uterus (rat uterus contraction), potency relative to bradykinin [2] | Smooth Muscle GP Ileum (guinea pig ileum contraction), potency relative to bradykinin [3] | Rat Blood Pressure IA, potency relative to bradykinin ([4]; intraaortic administration) | Rat Blood Pressure IV, potency relative to bradykinin ([4]; intravenous administration) |
| --- | --- | --- | --- | --- | --- |
| NC(N)=NCCC[C@H](NC(=O)[C@H](Cc1ccccc1)NC(=O)[C@@H](Cc1ccccc1)NC(=O)[C@H](CO)NC(=O)[C@H](Cc1ccccc1)NC(=O)CNC(=O)[C@@H]1CCCN1C(=O)[C@@H]1CCCN1C(=O)[C@@H](N)CCCN=C(N)N)C(=O)O [[D-Phe^7]-Bradykinin, (D-Phe^7)-bradykinin] (H-RPPGFS[dF]FR-OH) | 36% |  |  |  |  |
| RPPGFSPFR [Bradykinin] |  | 100% | 100% | 100% | 100% |
